This note sets out measurements from ChEMBL document CHEMBL1201862, “PubChem BioAssay data set” (2004).

One assay has as its target T1, Mucolipin-3 (Homo sapiens, UniProt Q8TDD5).
T1 sequence (Q8TDD5 whole entry): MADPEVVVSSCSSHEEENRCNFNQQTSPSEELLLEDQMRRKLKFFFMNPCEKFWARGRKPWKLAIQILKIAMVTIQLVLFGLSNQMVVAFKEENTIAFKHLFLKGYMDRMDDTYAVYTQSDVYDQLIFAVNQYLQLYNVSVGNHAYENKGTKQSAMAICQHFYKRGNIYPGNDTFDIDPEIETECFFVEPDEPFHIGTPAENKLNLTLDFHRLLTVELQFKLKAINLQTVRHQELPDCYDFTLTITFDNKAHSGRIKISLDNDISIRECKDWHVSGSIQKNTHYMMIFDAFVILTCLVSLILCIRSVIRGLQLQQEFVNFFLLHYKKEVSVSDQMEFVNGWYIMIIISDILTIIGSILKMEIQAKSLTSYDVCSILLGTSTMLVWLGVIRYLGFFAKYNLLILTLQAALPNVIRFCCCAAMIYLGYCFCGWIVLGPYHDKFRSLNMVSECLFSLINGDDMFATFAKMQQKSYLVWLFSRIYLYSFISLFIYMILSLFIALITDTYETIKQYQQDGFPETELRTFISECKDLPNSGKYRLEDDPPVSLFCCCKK
Description: Dose response cell-based high-throughput screening assay for agonists of the transient receptor potential channel ML3 (TRPML3). [Related pubchem assays: 1526, 1424, 1448 ]. The class given is functional.

Another assay addresses Ion channel NompC (Danio rerio, UniProt Q7T1G6). Description: Fluorescence counterscreen assay for TRPML3 agonists: dose response cell-based high-throughput screening assay to identify agonists of the transient receptor potential channel N1 (TRPN1). [Related pubchem assays: 1526, 1424, 1448 ]. Type of assay: functional.
Assay [1] addresses Induced myeloid leukemia cell differentiation protein Mcl-1 (Homo sapiens, UniProt Q07820). The class given is functional.
Assay [2] is described as follows: Luminescence Cell-Based Dose Retest to Confirm Inhibitors of Cancer Stem Cells. [Related pubchem assays (depositor defined):AID2717, AID2721]. The class given is functional. The note with it: Homo sapiens.
Assay [3] has as its system BJ. Description: cytotoxicity toward BJ-TERT fibroblasts, dose response, cell-based, RAS-independent, luminescence (AID 1933). The following applies: Homo sapiens. The class given is functional.
Assay [4] deals with BJ. Description: cells. Type of assay: functional, cell-based. The note with it: Homo sapiens.
Assay [5] deals with BJ. As to the kind of experiment: cytotoxicity toward BJ-TERT-LT-ST fibroblasts, dose response, cell-based, RAS-independent, luminescence (AID 1935).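 Also: BJ fibroblasts immortalized with TERT plus LT and ST oncogenes.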 The class given is functional. The note with it: Homo sapiens.
Assay [6] in a line: cytotoxicity toward DRD oncogenic fibroblasts, dose response, cell-based, non-viral oncogenic, luminescence (AID 1934). The class given is functional. The note with it: Homo sapiens.
The test system of assay [7] is BJ. Description: cytotoxicity toward Ras-transformed BJeLR fibroblasts, dose response, cell-based, alamar blue fluorescence, cherrypicked samples (AID 2631).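 Also: confirmatory dose-response assay in RAS-dependent BJ fibroblasts engineered with TERT, LT and ST, with cytotoxicity read by fluorescence.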 The class given is functional. The note with it: Homo sapiens.
Assay [8] can be described thus: HeLa 2N DNA content increase, dose response, cell-based, IC50 (AID 1117349). Type of assay: functional.
Assay [9] in a line: RKO cell viability reduction, dose response, CellTiter-Glo luminescence (AID 1117322). Type of assay: functional.
Assay [10] can be described thus: cytotoxicity toward HCT116 cells – cell-based, CellTiter-Glo luminescence, IC50, dose response (AID 1117332). The class given is functional. The note with it: HCT-116.
A short description of assay [11]: SNU-C1 cell viability reduction, dose response, CellTiter-Glo luminescence (AID 1117323). The class given is functional, cell-based.
Assay [12] can be described thus: HeLa 4N DNA content increase, dose response, cell-based, IC50 (AID 1117351). Type of assay: functional.
Assay [13] in a line: cytotoxicity toward HT-29 cells – cell-based, CellTiter-Glo luminescence, IC50, dose response (AID 1117330). Type of assay: functional.
Assay [14] is described as follows: CellTiter-Glo luminescent dose response of DLD-1 viability loss (AID 1117352). Type of assay: functional.
Assay [15] can be described thus: HCT116 cell viability decrease, GSK3B pretreatment – CellTiter-Glo, IC50, dose response (AID 1117339). Type of assay: functional. The note with it: HCT-116.
For a further assay, the target named is Large T antigen (Simian virus 40, UniProt P03070). Type of assay: functional, Betapolyomavirus macacae.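 Also: Confirmatory-stage PubChem screen for compounds that inhibit SV40 T antigen.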
Sequence of Large T antigen (P03070 whole entry): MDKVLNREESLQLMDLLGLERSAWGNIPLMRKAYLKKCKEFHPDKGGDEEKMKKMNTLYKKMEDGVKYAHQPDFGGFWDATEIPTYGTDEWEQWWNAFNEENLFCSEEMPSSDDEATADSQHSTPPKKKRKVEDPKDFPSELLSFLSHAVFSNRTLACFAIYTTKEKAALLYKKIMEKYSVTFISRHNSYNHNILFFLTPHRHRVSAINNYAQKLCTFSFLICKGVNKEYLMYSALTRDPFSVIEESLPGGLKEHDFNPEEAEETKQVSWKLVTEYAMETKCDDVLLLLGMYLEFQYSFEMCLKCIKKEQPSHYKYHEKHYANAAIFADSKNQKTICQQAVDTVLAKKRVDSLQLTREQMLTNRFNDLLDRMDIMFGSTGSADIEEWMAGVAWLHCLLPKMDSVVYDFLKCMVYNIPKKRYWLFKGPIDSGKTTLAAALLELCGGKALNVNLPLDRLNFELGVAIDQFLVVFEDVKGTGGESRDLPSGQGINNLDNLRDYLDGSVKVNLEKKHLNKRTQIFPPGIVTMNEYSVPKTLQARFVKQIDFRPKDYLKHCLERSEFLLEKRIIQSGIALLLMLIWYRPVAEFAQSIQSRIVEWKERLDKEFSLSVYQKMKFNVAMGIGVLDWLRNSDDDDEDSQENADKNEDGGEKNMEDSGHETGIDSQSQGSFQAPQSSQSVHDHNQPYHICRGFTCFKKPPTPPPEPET
Assay [16] deals with T2, Bifunctional protein GlmU (Mycobacterium tuberculosis, UniProt P9WMN3).
T2 sequence (P9WMN3 whole entry): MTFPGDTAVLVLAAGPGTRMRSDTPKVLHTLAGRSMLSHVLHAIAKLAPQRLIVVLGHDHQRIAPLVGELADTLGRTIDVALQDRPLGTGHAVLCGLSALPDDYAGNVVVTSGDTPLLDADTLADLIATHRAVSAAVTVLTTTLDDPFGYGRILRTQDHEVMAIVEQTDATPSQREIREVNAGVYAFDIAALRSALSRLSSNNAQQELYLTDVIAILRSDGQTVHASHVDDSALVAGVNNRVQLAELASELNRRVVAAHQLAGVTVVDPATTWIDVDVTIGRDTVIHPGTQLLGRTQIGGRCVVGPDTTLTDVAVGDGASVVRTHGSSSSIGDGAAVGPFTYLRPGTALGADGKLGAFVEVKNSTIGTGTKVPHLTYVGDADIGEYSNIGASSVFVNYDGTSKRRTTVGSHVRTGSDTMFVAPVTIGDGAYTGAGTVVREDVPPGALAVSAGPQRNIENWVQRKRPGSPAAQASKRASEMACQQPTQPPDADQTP
Description: Inhibitors of Mycobacterial Glucosamine-1-phosphate acetyl transferase (GlmU). Secondary screen. Details: species or system Mycobacterium tuberculosis H37Rv.

The next assay concerns the target Genome polyprotein (dengue virus type 2, UniProt P29990). As to the kind of experiment: Dengue-2 NS5 methyltransferase inhibitors, primary screen, biochemical, confirmation dose response (AID 588689). The class given is functional.
The target of assay [17] is T3, Carboxy-terminal domain RNA polymerase II polypeptide A small phosphatase 1 (Homo sapiens, UniProt Q9GZU7).
T3 sequence (Q9GZU7 whole entry): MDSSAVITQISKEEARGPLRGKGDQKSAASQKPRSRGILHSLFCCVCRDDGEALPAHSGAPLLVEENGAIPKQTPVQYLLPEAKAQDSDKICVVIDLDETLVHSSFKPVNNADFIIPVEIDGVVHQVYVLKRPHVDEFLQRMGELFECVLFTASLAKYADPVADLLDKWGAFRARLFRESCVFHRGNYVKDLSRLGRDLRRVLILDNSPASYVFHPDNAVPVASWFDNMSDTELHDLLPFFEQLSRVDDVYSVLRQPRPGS
Description: inhibitors of CTDSP1, concentration-response testing, biochemical assay, absorbance-based, actives from ultra-high-throughput screening (AID 540297). The class given is functional.

The nature of assay [18]: inhibitors of HIV Env-driven cell fusion, dose response, cherry-pick (AID 652057). The class given is functional, cell-based.
For a further assay, the target named is Paired box protein Pax-8 (Homo sapiens, UniProt Q06710). Description: inhibitors of PAX8-driven TPO luciferase reporter, dose response, RMG-I cells, cherry-pick (AID 687027).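 Also: luciferase reporter driven by Pax8 target thyroperoxidase promoter measured by SteadyGlo luminescence.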 Type of assay: functional, cell-based.
Sequence of Paired box protein Pax-8 (Q06710 whole entry, the tested form may be a part): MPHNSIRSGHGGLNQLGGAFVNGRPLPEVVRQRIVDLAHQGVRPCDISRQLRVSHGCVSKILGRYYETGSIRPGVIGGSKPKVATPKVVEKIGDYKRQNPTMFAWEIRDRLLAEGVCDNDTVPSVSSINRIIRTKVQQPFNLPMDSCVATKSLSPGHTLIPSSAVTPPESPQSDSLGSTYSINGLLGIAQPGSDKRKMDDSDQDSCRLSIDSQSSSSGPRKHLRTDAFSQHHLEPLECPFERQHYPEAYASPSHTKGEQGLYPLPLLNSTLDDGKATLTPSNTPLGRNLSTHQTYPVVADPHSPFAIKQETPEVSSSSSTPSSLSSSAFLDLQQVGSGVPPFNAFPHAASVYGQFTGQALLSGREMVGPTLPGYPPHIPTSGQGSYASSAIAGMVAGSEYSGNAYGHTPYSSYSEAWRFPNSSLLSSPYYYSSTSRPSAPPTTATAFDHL
Assay [19] can be described thus: inhibitors of clade B AD8 Env fusion, dose response, cell-based, cherry-pick (AID 652062).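 Also: luciferase signal from cell-cell fusion driven by HIV-1 clade B AD8 Env; potency is for inhibitors of fusion seen as a drop in luminescence.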 The class given is functional.
Assay [20] in a line: NIH:OVCAR-3 ovarian cancer cell cytotoxicity, dose response, PAX8 inhibitor project, plate reader, dry powder samples (AID 743044). The class given is functional, cell-based.
The nature of assay [21]: non-specific cell cytotoxicity, dose response, cytotoxicity control for PAX8 inhibitor project, plate reader, dry powder samples (AID 743021). The class given is functional, cell-based.
Assay [22] is described as follows: M. tuberculosis H37Rv growth inhibitors, H37Rv strain (AID 1626). The class given is functional.
The nature of the next assay: cells. Type of assay: functional.
The target of a further assay is T4, Estrogen receptor (Homo sapiens, UniProt P03372).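 Also: potency for inhibiting coactivator peptide recruitment to the receptor.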
T4 sequence (P03372 whole entry): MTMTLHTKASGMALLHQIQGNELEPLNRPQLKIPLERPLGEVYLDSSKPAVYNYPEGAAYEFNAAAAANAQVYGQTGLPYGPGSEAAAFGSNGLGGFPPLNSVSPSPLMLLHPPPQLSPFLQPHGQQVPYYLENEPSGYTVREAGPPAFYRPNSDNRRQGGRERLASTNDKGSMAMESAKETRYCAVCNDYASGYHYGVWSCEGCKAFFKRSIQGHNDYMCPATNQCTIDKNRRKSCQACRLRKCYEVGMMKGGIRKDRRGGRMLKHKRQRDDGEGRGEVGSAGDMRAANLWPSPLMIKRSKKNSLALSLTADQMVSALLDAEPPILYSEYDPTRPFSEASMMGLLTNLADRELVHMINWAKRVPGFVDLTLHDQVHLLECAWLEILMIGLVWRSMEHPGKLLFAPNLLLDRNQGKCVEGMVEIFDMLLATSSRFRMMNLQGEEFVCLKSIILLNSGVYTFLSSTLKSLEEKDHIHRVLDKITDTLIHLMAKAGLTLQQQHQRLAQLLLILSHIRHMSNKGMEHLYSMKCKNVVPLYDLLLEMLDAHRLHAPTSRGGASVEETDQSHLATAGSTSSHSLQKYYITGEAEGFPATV

Calls of active or inactive are those of the source. Some results are limits rather than exact numbers.

Sequence of Ion channel NompC (Q7T1G6 whole entry): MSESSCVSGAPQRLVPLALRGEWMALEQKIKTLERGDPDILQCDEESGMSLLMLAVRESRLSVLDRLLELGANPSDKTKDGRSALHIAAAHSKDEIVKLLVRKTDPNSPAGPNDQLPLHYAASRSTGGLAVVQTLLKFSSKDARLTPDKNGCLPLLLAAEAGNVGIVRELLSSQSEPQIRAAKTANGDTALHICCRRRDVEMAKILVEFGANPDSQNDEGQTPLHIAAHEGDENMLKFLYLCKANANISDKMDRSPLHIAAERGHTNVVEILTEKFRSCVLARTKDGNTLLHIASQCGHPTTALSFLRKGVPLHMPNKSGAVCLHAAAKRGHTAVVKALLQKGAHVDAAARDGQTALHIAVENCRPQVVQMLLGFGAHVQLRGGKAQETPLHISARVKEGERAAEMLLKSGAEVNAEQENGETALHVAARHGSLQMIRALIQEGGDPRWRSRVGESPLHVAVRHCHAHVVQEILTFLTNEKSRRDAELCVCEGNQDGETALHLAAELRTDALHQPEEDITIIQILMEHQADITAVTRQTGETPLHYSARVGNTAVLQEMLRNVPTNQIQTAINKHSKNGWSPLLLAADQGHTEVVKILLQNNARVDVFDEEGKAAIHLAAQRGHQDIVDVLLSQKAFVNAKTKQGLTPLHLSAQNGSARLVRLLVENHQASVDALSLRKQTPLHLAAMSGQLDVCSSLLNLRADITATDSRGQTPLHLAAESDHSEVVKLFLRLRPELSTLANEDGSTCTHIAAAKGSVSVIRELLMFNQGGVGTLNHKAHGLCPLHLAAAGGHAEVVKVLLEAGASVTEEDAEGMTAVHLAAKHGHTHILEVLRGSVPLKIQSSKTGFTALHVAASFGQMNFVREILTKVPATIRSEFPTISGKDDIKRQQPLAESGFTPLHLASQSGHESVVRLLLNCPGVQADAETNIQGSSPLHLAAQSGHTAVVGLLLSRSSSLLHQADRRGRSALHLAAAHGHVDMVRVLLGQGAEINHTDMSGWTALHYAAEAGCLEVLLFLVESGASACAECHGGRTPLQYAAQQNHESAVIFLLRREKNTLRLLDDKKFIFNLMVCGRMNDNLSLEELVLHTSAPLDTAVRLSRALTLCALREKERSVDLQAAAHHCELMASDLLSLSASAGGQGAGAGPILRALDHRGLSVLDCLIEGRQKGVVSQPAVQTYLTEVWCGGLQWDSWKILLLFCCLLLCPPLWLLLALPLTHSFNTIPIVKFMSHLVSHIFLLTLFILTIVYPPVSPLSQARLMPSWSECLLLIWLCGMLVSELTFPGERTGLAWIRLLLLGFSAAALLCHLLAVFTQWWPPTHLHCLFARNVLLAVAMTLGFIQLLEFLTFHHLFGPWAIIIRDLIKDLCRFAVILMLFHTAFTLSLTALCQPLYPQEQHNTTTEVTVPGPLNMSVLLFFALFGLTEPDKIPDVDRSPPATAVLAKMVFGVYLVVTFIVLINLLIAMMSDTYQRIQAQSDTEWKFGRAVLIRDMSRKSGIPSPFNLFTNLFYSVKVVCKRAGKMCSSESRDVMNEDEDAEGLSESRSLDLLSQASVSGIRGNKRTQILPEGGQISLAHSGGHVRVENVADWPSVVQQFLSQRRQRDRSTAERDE
Sequence of Genome polyprotein (P29990 2492-3391 limits assumed): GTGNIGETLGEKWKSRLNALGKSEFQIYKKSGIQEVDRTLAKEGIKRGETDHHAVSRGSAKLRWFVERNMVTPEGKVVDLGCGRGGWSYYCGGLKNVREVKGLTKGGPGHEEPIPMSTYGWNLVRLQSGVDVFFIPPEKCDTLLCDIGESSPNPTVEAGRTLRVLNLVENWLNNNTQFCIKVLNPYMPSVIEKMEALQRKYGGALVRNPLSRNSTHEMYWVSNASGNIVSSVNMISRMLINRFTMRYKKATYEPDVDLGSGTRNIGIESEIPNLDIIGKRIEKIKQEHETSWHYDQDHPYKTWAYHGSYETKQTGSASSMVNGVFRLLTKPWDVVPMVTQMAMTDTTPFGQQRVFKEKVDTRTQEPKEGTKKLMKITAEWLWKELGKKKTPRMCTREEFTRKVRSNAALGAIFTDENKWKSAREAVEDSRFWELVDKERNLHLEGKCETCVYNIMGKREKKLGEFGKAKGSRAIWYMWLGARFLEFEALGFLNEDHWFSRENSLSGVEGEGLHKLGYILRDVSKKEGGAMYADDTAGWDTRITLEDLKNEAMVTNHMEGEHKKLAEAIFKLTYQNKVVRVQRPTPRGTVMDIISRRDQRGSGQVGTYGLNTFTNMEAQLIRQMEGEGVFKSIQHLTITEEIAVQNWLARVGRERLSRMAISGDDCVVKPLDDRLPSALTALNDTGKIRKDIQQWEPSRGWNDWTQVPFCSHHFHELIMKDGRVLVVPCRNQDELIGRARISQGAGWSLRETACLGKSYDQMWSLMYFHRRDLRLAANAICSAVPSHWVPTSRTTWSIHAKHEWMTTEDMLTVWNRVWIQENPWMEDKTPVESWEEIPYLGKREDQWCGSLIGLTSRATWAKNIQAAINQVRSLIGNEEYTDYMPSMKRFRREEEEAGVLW
Sequence of Induced myeloid leukemia cell differentiation protein Mcl-1 (Q07820 whole entry): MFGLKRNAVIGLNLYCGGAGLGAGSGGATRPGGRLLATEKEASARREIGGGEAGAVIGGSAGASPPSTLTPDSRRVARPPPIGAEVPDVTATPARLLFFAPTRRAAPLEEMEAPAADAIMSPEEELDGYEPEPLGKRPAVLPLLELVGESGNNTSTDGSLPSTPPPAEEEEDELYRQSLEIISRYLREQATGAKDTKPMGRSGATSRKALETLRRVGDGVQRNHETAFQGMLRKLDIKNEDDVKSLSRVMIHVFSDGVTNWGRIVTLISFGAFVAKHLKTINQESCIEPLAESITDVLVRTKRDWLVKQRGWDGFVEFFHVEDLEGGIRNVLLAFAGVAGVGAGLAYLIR

With `O=S(=O)(NC1CCCCCC1)c1cccc2cccnc12`, the EC50 at Mucolipin-3 was 3.4 µM (active); at Ion channel NompC, > 29.9 µM (not active).

Regarding `CCC1CCCCN1S(=O)(=O)c1ccccc1[N+](=O)[O-]` (stereo not drawn), the EC50 was 6.06 µM (active) on Mucolipin-3 and > 29.9 µM (not active) at Ion channel NompC.

On to `CCC1CCCCN1S(=O)(=O)c1ccc(S(=O)(=O)N(Cc2ccccn2)CC2CCCO2)cc1` (stereo not drawn), for which the concentration giving a half-maximal response (EC50) on Mucolipin-3 was 1.81 µM (active); at Ion channel NompC, > 29.9 µM (not active). The IC50 in [1] is < 0.4 µM (not active). In [2], the AC50 was 2.4 µM (active).

With `Cn1cnc([N+](=O)[O-])c1Sc1ncnc2[nH]cnc12` [AZATHIOPRINE], the EC50 in the assay on BJ [3] was > 150 µM (not active); in the assay with BJ [4], 5.04 µM (inconclusive); in the assay on BJ [5], > 150 µM (not active); in assay [6] it was 2.9 µM (active); with BJ [7], > 133 µM (inactive). Further, the IC50 in [8] was > 10 µM (inactive); in assay [9], 2.66 µM (active); in [10], 0.207 µM (active); in [11], > 20 µM (inactive); in assay [12], > 10 µM (inactive); in assay [13], > 20 µM (inactive). In addition, the values for the IC50 in assay [14] and in [15] were 0.364 µM (active) and 0.623 µM (active), respectively.

Regarding `O=C1NN(c2ccccc2)C(=O)/C1=C/c1ccc(-c2ccc(Cl)c(C(=O)O)c2)o1`, the IC50 is 17.1 µM (active) on Large T antigen, 80.4 µM (active) in [16], 32.2 µM (active) at Genome polyprotein and 4.07 µM (active) in assay [17].

With `COc1ccccc1C#Cc1ccc2c(c1)O[C@H](CN(C)Cc1ccncc1)[C@@H](C)CN([C@@H](C)CO)S2(=O)=O`, the AC50 is 38.1 µM (active) in [18]; 10.9 µM (active) at Paired box protein Pax-8; 25.9 µM (active) in assay [19]; 57.8 µM (active) in [20]; 61.5 µM (active) in [21].

On to `CCOC(=O)c1ccc(-n2c(CCC(=O)O)ccc2-c2cccs2)cc1`, for which the IC50 in [22] was > 100 µM (active); in “cells” it was 36.2 µM (active).

Take `Cc1ccc(OCC(=O)N/N=C\c2ccc(-c3cccc(C(=O)O)c3)o2)c(C)c1`: the IC50 in assay [16] is 137 µM (active).

`CCOc1cccc(-c2nnc3sc(-c4cc(OC)c(OC)c(OC)c4)nn23)c1`: at Estrogen receptor, the IC50 was > 50 µM (not active).

Consider `Cc1sc(N)nc1-c1ccccc1`, for which the IC50 in [22] was > 100 µM (active).

For the molecule `O/N=C/c1ccc2ccccc2c1`, the IC50 in assay [22] is > 100 µM (active).

Regarding `CCCCCCCCCCCCNCCNCCNCC(=O)O` [DODICIN], the IC50 in assay [8] and in assay [12] was > 10 µM (inactive) in each case.
